Results taken from patent US9717748B2, “Compositions and methods for treating an infection” (CMPD LICENSING, LLC, priority 2015, dated 2017).

Legend:
Aspergillus fumigatus = assay: Expected efficacy of antifungal agents
Scedosporium apiospermum = assay: Expected efficacy of antifungal agents
Aspergillus flavus = assay: Expected efficacy of antifungal agents
Peptostreptococcus = assay: Expected efficacy of antibiotic agents; details: Gram: pos
[1] = system: Staphylococcus epidermidis; assay: Expected efficacy of antibiotic agents; details: Gram: pos
Moraxella catarrhalis = assay: Expected efficacy of antibiotic agents; details: Gram: neg
Yersinia pestis = details: Gram: neg
Streptococcus agalactiae = assay: Expected efficacy of antibiotic agents; details: Gram: pos
Chlamydia pneumoniae = assay: Expected efficacy of antibiotic agents; details: Gram: n/a
Streptococcus pyogenes = assay: Expected efficacy of antibiotic agents; details: Gram: pos
Proteus mirabilis = assay: Expected efficacy of antibiotic agents; details: Gram: neg
Neisseria gonorrhoeae = assay: Expected efficacy of antibiotic agents; details: Gram: neg
Enterobacter sakazakii = assay: Expected efficacy of antibiotic agents; details: Gram: neg
Streptococcus pneumoniae = assay: Expected efficacy of antibiotic agents; details: Gram: pos
Shigella dysenteriae = assay: Expected efficacy of antibiotic agents; details: Gram: neg
Enterobacter cloacae = assay: Expected efficacy of antibiotic agents; details: Gram: neg
Neisseria meningitidis = assay: Expected efficacy of antibiotic agents; details: Gram: neg
Haemophilus ducreyi = assay: Expected efficacy of antibiotic agents; details: Gram: neg
Chlamydia trachomatis = assay: Expected efficacy of antibiotic agents; details: Gram: n/a
Chlamydia psittaci = details: Gram: n/a
[2] = system: Acinetobacter calcoaceticus; assay: Expected efficacy of antibiotic agents; details: Gram: neg
[3] = system: Klebsiella (Calymmato-bacterium) granulomatis; assay: Expected efficacy of antibiotic agents; details: Gram: neg
Citrobacter freundii = assay: Expected efficacy of antibiotic agents; details: Gram: neg
Shigella flexneri = assay: Expected efficacy of antibiotic agents; details: Gram: neg
[4] = system: Corynebacterium urealyticum; assay: Expected efficacy of antibiotic agents; details: Gram: pos
Mycoplasma pneumoniae = assay: Expected efficacy of antibiotic agents; details: Gram: n/a
Campylobacter jejuni = assay: Expected efficacy of antibiotic agents; details: Gram: neg
Acinetobacter baumannii = assay: Expected efficacy of antibiotic agents; details: Gram: neg
Acinetobacter lwoffii = assay: Expected efficacy of antibiotic agents; details: Gram: neg
Klebsiella pneumoniae = assay: Expected efficacy of antibiotic agents; details: Gram: neg
Clostridium perfringens = details: Gram: anaer
Legionella pneumophila = details: Gram: neg
Clostridium difficile = assay: Expected efficacy of antibiotic agents; details: Gram: anaer
Shigella sonnei = assay: Expected efficacy of antibiotic agents; details: Gram: neg
Bordetella pertussis = assay: Expected efficacy of antibiotic agents; details: Gram: neg
Bacteroides fragilis = assay: Expected efficacy of antibiotic agents; details: Gram: anaer
[5] = system: Methicillin resistant staphaureus (MRSA); assay: Expected efficacy of antibiotic agents; details: Gram: pos
Enterococcus faecalis = assay: Expected efficacy of antibiotic agents; details: Gram: pos
Corynebacterium jeikeium = assay: Expected efficacy of antibiotic agents; details: Gram: pos
Pseudomonas aeruginosa = assay: Expected efficacy of antibiotic agents; details: Gram: neg
[6] = system: Staphylococcus aureus (MSSA); assay: Expected efficacy of antibiotic agents; details: Gram: pos
Vibrio cholerae = assay: Expected efficacy of antibiotic agents; details: Gram: neg
Diphtheroids = assay: Expected efficacy of antibiotic agents; details: Gram: pos
Enterococcus faecium = assay: Expected efficacy of antibiotic agents; details: Gram: pos
[7] = system: Viridans group streptococci; assay: Expected efficacy of antibiotic agents; details: Gram: pos
Cryptococcus neoformans = assay: Expected efficacy of antifungal agents
Leishmania infantum = assay: Expected efficacy of antifungal agents
[8] = system: Trichophyton mentagrophytes; assay: Expected efficacy of antifungal agents

C[C@@H](c1ncncc1F)[C@](O)(Cn1cncn1)c1ccc(F)cc1F [Voriconazole]
Expected efficacy against Aspergillus fumigatus (Aspergillus fumigatus): yes
Expected efficacy against Scedosporium apiospermum (Scedosporium apiospermum): yes
Expected efficacy against Aspergillus flavus (Aspergillus flavus): yes

NC[C@H]1O[C@H](O[C@H]2[C@H](O)[C@@H](O[C@H]3O[C@H](CO)[C@@H](O)[C@H](N)[C@H]3O)[C@H](N)C[C@@H]2N)[C@H](N)C[C@@H]1O [Tobramycin]
Expected efficacy against Peptostreptococcus (Peptostreptococcus): no
Expected efficacy against Staphylococcus epidermidis [1]: no
Expected efficacy against Moraxella catarrhalis (Moraxella catarrhalis): yes
Expected efficacy against Yersinia pestis (Yersinia pestis): yes
Expected efficacy against Streptococcus agalactiae (Streptococcus agalactiae): no
Expected efficacy against Chlamydia pneumoniae (Chlamydia pneumoniae): no
Expected efficacy against Streptococcus pyogenes (Streptococcus pyogenes): no
Expected efficacy against Proteus mirabilis (Proteus mirabilis): yes
Expected efficacy against Neisseria gonorrhoeae (Neisseria gonorrhoeae): no
Expected efficacy against Enterobacter sakazakii (Enterobacter sakazakii): yes
Expected efficacy against Streptococcus pneumoniae (Streptococcus pneumoniae): no
Expected efficacy against Shigella dysenteriae (Shigella dysenteriae): yes
Expected efficacy against Enterobacter cloacae (Enterobacter cloacae): yes
Expected efficacy against Neisseria meningitidis (Neisseria meningitidis): no
Expected efficacy against Haemophilus ducreyi (Haemophilus ducreyi): yes
Expected efficacy against Chlamydia trachomatis (Chlamydia trachomatis): no
Expected efficacy against Chlamydia psittaci (Chlamydia psittaci): no
Expected efficacy against Acinetobacter calcoaceticus [2]: no
Expected efficacy against Klebsiella (Calymmato-bacterium) granulomatis [3]: yes
Expected efficacy against Citrobacter freundii (Citrobacter freundii): yes
Expected efficacy against Shigella flexneri (Shigella flexneri): yes
Expected efficacy against Corynebacterium urealyticum [4]: no
Expected efficacy against Mycoplasma pneumoniae (Mycoplasma pneumoniae): no
Expected efficacy against Campylobacter jejuni (Campylobacter jejuni): yes
Expected efficacy against Acinetobacter baumannii (Acinetobacter baumannii): no
Expected efficacy against Acinetobacter lwoffii (Acinetobacter lwoffii): no
Expected efficacy against Klebsiella pneumoniae (Klebsiella pneumoniae): yes
Expected efficacy against Clostridium perfringens (Clostridium perfringens): no
Expected efficacy against Legionella pneumophila (Legionella pneumophila): no
Expected efficacy against Clostridium difficile (Clostridium difficile): no
Expected efficacy against Shigella sonnei (Shigella sonnei): yes
Expected efficacy against Bordetella pertussis (Bordetella pertussis): no
Expected efficacy against Bacteroides fragilis (Bacteroides fragilis): no
Expected efficacy against Methicillin resistant staphaureus (MRSA) [5]: no
Expected efficacy against Enterococcus faecalis (Enterococcus faecalis): no
Expected efficacy against Corynebacterium jeikeium (Corynebacterium jeikeium): no
Expected efficacy against Pseudomonas aeruginosa (Pseudomonas aeruginosa): yes
Expected efficacy against Staphylococcus aureus (MSSA) [6]: no
Expected efficacy against Vibrio cholerae (Vibrio cholerae): no
Expected efficacy against Diphtheroids (Diphtheroids): no
Expected efficacy against Enterococcus faecium (Enterococcus faecium): no
Expected efficacy against Viridans group streptococci [7]: no

C[C@@H]1[C@H](O)[C@@H](C)/C=C/C=C/C=C/C=C/C=C/C=C/C=C/[C@H](O[C@@H]2O[C@H](C)[C@@H](O)[C@H](N)[C@@H]2O)C[C@@H]2O[C@](O)(C[C@@H](O)C[C@@H](O)[C@H](O)CC[C@@H](O)C[C@@H](O)CC(=O)O[C@H]1C)C[C@H](O)[C@H]2C(=O)O [Amphotericin]
Expected efficacy against Coccidioides immitis (Coccidioides immitis): yes
Expected efficacy against Aspergillus fumigatus (Aspergillus fumigatus): yes
Expected efficacy against Cryptococcus neoformans (Cryptococcus neoformans): yes
Expected efficacy against Aspergillus flavus (Aspergillus flavus): yes
Expected efficacy against Leishmania infantum (Leishmania infantum): yes

CCC(C)n1ncn(-c2ccc(N3CCN(c4ccc(OC[C@H]5CO[C@](Cn6cncn6)(c6ccc(Cl)cc6Cl)O5)cc4)CC3)cc2)c1=O (mixture of isomers) [Itraconazole]
Expected efficacy against Coccidioides immitis (Coccidioides immitis): yes
Expected efficacy against Aspergillus fumigatus (Aspergillus fumigatus): yes
Expected efficacy against Cryptococcus neoformans (Cryptococcus neoformans): yes
Expected efficacy against Aspergillus flavus (Aspergillus flavus): yes
Expected efficacy against Trichophyton mentagrophytes [8]: yes
